Source: patent US8637511B2, “Aminopyrimidines useful as kinase inhibitors” (Vertex Pharmaceuticals Incorporated, priority 2005, dated 2014)
Like-named read-outs stand apart in the source and are kept apart here.

Tests used:
FLT-3 = molecular target: T1, FLT-3 (Homo sapiens, UniProt P36888); assay: FLT-3 inhibition assay, radiometric filter-binding; format: biochemical
T1 sequence (P36888 27-993): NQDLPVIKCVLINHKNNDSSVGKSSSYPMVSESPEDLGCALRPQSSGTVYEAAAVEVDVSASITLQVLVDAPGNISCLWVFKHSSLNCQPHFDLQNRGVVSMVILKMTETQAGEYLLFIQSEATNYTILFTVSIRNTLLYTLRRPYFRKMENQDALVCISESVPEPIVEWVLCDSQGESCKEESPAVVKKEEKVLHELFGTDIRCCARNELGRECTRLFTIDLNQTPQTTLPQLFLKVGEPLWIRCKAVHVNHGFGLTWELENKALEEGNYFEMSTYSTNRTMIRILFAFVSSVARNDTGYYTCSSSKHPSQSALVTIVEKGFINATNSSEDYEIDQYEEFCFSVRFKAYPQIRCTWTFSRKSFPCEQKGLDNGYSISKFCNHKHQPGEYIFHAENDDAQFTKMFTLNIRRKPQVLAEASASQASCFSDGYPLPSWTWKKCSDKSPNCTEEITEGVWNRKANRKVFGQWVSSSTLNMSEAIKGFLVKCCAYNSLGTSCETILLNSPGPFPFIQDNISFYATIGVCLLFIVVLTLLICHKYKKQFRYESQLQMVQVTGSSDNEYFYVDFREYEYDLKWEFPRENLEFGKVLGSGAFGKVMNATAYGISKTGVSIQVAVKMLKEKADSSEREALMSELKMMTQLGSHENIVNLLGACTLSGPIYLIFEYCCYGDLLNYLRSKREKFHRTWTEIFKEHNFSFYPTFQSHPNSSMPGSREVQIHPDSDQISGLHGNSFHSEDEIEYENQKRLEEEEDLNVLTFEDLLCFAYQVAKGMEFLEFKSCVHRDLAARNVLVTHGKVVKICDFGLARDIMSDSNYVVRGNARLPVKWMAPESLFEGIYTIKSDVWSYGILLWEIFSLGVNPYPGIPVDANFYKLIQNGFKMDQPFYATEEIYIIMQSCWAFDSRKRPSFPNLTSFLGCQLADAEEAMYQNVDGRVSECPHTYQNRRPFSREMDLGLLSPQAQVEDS

human Itk kinase = molecular target: T2, human Itk kinase (Homo sapiens, UniProt Q08881); assay: Itk inhibition assay: radioactivity-based assay; format: biochemical; conditions: Ki(app)
T2 sequence (Q08881 1-620): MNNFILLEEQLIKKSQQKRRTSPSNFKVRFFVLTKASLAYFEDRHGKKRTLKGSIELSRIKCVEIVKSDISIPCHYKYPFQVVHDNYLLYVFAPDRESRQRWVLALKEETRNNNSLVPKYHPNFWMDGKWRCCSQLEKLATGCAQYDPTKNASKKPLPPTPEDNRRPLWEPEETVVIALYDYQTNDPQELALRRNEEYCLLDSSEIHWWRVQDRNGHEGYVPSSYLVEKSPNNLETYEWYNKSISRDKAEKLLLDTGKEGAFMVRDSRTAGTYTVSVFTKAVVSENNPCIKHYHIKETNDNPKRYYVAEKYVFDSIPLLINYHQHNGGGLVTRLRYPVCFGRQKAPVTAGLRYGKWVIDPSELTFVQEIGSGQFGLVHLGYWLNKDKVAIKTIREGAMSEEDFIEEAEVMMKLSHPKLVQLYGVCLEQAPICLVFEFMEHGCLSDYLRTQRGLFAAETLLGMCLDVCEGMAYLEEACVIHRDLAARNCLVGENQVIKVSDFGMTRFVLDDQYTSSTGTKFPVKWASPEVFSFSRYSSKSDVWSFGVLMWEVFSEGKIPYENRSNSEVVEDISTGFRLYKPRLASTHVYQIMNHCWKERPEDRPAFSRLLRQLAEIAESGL
Method in brief: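 50 nM Itk with 3 μM SAM68 Δ332-443 peptide and 7.5 μM [γ-33P]ATP in MOPS pH 7.0, MgCl2, 25° C; compound (top 50 μM final, 2-fold dilutions, 2% DMSO) preincubated 10 min, reaction 10 min. Phosphocellulose filter capture and scintillation counting; Ki(app) by non-linear regression of initial rates.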

Row | SMILES | Ki (FLT-3) | Ki (human Itk kinase) | Ki (FLT-3; read-out: FLT-3 Ki value)
1 | CCC(=O)Nc1ccc(Sc2nc(Nc3cc(C4CC4)n[nH]3)cc(N3CC(C)(O)C3)n2)cc1 [Compound 76] | ≤ 0.05 µM | ≤ 0.1 µM | –
2 | CCC(=O)Nc1ccc(Sc2nc(C#CC(C)(C)N3CCC3)cc(Nc3cc(C)n[nH]3)n2)cc1 [Compound 77] | 0.15 to 1 µM | 0.1 to 1 µM | –
3 | CCC(=O)Nc1ccc(Sc2nc(Nc3cc(C)n[nH]3)cc(N3CC(C)(C#N)C3)n2)cc1 [Compound 79] | – | 0.1 to 1 µM | ≤ 0.05 µM
4 | CCC(=O)Nc1ccc(Sc2nc(Nc3cc(C)n[nH]3)cc(N3CC(C)(NC(C)(C)C)C3)n2)cc1 [Compound 80] | – | 0.1 to 1 µM | 0.05 to 0.15 µM
5 | CCC(=O)Nc1ccc(Sc2nc(Nc3cc(C)n[nH]3)cc(N3CC(O)(C(C)(C)C)C3)n2)cc1 [Compound 81] | – | ≤ 0.1 µM | ≤ 0.05 µM
6 | Cc1cc(Nc2cc(N3CCC3)nc(Sc3ccc(NC(=O)c4ccc(Cl)cc4Cl)cc3)n2)n[nH]1 [Compound 162] | 0.15 to 1 µM | 0.1 to 1 µM | –
7 | Cc1cc(Nc2cc(N3CCC3)nc(Sc3ccc(NC(=O)c4nccn4C)cc3)n2)n[nH]1 [Compound 166] | 0.15 to 1 µM | 1 to 2 µM | –
8 | Cc1cc(Nc2cc(N3CCC3)nc(Sc3ccc(NC(=O)c4ocnc4C)cc3)n2)n[nH]1 [Compound 167] | 0.15 to 1 µM | 1 to 2 µM | –
